Experimental data: patent US20160058743A1, “METHODS FOR TREATING SENSORIMOTOR IMPAIRMENTS ASSOCIATED WITH CERTAIN TYPES OF STROKE USING AMINOPYRIDINES” (ACORDA THERAPEUTICS, INC., priority 2013, published 2016)
Values joined by “and” are separate entries in the source; they are usually repeats but may differ in a detail not shown here. Equal entries are not always repeated. “Also recorded” adds a separate entry of the source.

Experiments:
Assay type in all cases: in vivo, Sprague Dawley rats
[1] = test system: rats with middle cerebral artery occlusion (MCAO); assay: Hindlimb placing test after MCAO
Body weight of MCAO rats = conditions: individual animals and group Mean
Excerpt: Tables 16-18 show Cylinder Test Total Score (% of overall asymmetry) for each of Groups 1-3.

[2] = test system: rats with middle cerebral artery occlusion (MCAO); assay: Body swing test after MCAO; conditions: for Body Swing Test (% right Swing): Group 3 mean, phase 2
Excerpt: (§1) In particular, the MCAO model in Sprague Dawley rats that was utilized in the experiments presented below mimics the conditions in human ischemic stroke. In this model, focal cerebral infarcts were made by permanent occlusion of the proximal right middle cerebral artery (MCA) using a modification of the method of Tamura et al. (No To Shinkei 1986; 38:747-51). Briefly, the temporalis muscle was bisected and reflected through an incision made midway between the eye and the ear canal. The proximal MCA was exposed through a subtemporal craniectomy without removing the zygomatic arch and without transecting the facial nerve.
(§2) In this experiment, Sprague Dawley rats were anesthetized, subjected to a surgery resulting in middle cerebral artery occlusion (MCAO), treated with and without 4-aminopyridine and behavioral assessments were performed as described below. Treatment was initiated at 4 weeks after stroke.
(§3) Dosing and Treatment: Rats were treated in accordance with the dosing schedule shown in Tables 2A, 2B, 3 and FIG. 2, with each Phase being a two week period of time. A solution of 4-AP was used in this experiment. Dosing was started at 4 weeks after ischemic event. 4-aminopyridine was dissolved in water for injection (WFI, Cellgro) and sterile filtered. Final concentrations of 0.315 mg/mL or 1.0 mg/mL of 4-aminopyridine were delivered at 2 mL/kg by gastric gavage, resulting in final doses of 0.63 mg/kg and 2 mg/kg respectively. Vehicle control treatment was WFI delivered at 2 mL/kg by gastric gavage. This study was divided into three treatment phases (1-3) with each randomized cohort of animals receiving a different dose level during each of the treatment phases. Starting on day 30 after MCAO (Day 30, start of phase 1), the animals received gavage dosing of solutions (2 mL/kg) approximately 12 hours apart, for a total of five doses. The same schedule was repeated with different treatment on Day 44 and Day 58 for phase 2 and 3 of the study, respectively. Animals were not treated during the 10 days between phases (washout period).
Treatment groups: Dosing was started 4 weeks after MCAO surgery. During these 4 weeks, weekly behavioral assessments, as defined below, were performed. Two dose levels of 4-AP plus vehicle control were assessed, with treatment starting at 4 weeks after ischemic event. All dosing was via gastric gavage, volume not to exceed 2 mL/kg. Animals were given the first dose and behavioral assessments were performed starting 60 minutes after dosing. […] Following the final behavioral assessment, drug was withdrawn for 10 or 11 days, behavior was re-assessed, and then animals were re-challenged with a cross-over treatment (Phase 2 of Table 2B) as described in Tables 2A, 2B and 3, followed by the same behavioral testing and dosing regimen. […]

[3] = test system: rats with middle cerebral artery occlusion (MCAO); assay: Forelimb placing test after MCAO; conditions: for Forelimb Placing Total Score: 0=normal, 12=maximally impaired
Excerpt: as §1, §2, §3
Treatment groups: Dosing was started 4 weeks after MCAO surgery. During these 4 weeks, weekly behavioral assessments, as defined below, were performed. Two dose levels of 4-AP plus vehicle control were assessed, with treatment starting at 4 weeks after ischemic event. All dosing was via gastric gavage, volume not to exceed 2 mL/kg. Animals were given the first dose and behavioral assessments were performed starting 60 minutes after dosing. Animals then received the second dose that day at the appropriate time and b.i.d (preferably every 12 hours) thereafter for 2 more days (3 total days of dosing, 5 total doses). One hour after the 5th dose, animals were subjected to behavioral assessments as defined below. Following the final behavioral assessment, drug was withdrawn for 10 or 11 days, behavior was re-assessed, and then animals were re-challenged with a cross-over treatment (Phase 2 of Table 2B) as described in Tables 2A, 2B and 3, followed by the same behavioral testing and dosing regimen. This cross-over was repeated one more time as well (Phase 3 of Table 2B) (see FIG. 2).
Behavioral test details: Behavioral evaluations were done by evaluators blinded to treatment assignment. Blinded assessments of sensorimotor function were performed just prior to MCAO surgery, 24 hours after MCAO surgery and weekly thereafter until the first phase of dosing using limb placing and body swing behavioral tests. As described above, behavioral assessments were timed exactly with dosing times. Animals were tested one hour after the 1st and 5th doses of each phase (i.e., Days 30 and 32 of the first phase, Days 44 and 46 of the second phase; and Days 58 and 60 of the third phase); animals were also tested during the washout periods on Days 42 and 56. Animals were given the first dose, behavioral assessments were performed starting 60 minutes later, and blood was collected 90 minutes after dosing. […]

[4] = test system: rats with middle cerebral artery occlusion (MCAO); assay: Infarct volume measurement (H&E staining); conditions: % of contralateral hemisphere; for Mean infarct volume (%): Example 2 crossover, Day 63
Method: Euthanasia and post-mortem processing: Infarct Volume analysis. After the last behavioral assessment, rats were anesthetized deeply with ketamine/xylazine (100 mg/kg ketamine, 10 mg/kg xylazine, i.p.) and perfused transcardially with normal saline (with heparin 2 unit/ml) followed by 4% paraformaldehyde or formalin on Day 63. Brains were harvested and processed for histological assessment. A subset of 10 brains per group was processed for infarct volume measurement (H&E staining).
Infarct measurement: Brains were embedded in paraffin and 5 micron thick coronal sections were cut using a microtome. Sections were stained with hematoxylin and eosin (H&E), using standard methods. Seven coronal sections (+4.7, +2.7, +0.7, −1.3, −3.3, −5.3 and −7.3, compared to bregma respectively) from each brain were photographed by a digital camera, and the infarct area on each slice was determined by NIH Image (Image J) using the “indirect method” (area of the intact contralateral [left] hemisphere−area of intact regions of the ipsilateral [right] hemisphere) to correct for brain edema. Infarct areas were then summed among slices and multiplied by slice thickness (the distance between sections) to give total infarct volume, which was expressed as a percentage of intact contralateral hemispheric volume.
Euthanasia and post-mortem processing: At day 70 after MCAO, rats were anesthetized as described in Example 2, above.
Infarct measurement: Infarct measurement was performed as described in Example 2, above.

Question: With `Nc1ccncc1` [4-AP, 4-aminopyridine] as the compound, how does the “Hind limb placing score compared to vehicle” value ([1]; Example 17, 0.5 mg/kg b.i.d. p.o., Day 59 post-MCAO) read?
Answer: improved with the low dose but did not reach significance

Question: What about the “Hind limb test compared to vehicle” value ([1]; Example 17, 1 mg/kg b.i.d. p.o., Day 62 post-MCAO, p<0.05) of the same compound?
Answer: measureable improvement

Question: What about the “Hind limb function compared to vehicle” value ([1]; Example 17, 2 mg/kg b.i.d. p.o., Day 65 post-MCAO, p<0.001) of the same compound?
Answer: significant improvements

Question: What about the “Weight” value (Body weight of MCAO rats; Group 1, D 1) of the same compound?
Answer: 291 g and 317 g (2×) and 306 g and 315 g and 323 g and 294 g

Question: And the “Weight” value (Body weight of MCAO rats; Group 1, D 7)?
Answer: 328 g and 361 g and 359 g and 375 g and 369 g and 340 g and 366 g

Question: And the “Weight” value (Body weight of MCAO rats; Group 1, D 14)?
Answer: 375 g and 403 g and 394 g and 421 g and 436 g and 382 g and 422 g

Question: And the “Weight” value (Body weight of MCAO rats; Group 1, D 21)?
Answer: 399 g and 419 g and 416 g and 444 g and 494 g and 428 g and 469 g

Question: And the “Weight” value (Body weight of MCAO rats; Group 1, D 28)?
Answer: 427 g and 451 g and 436 g and 484 g and 525 g and 457 g and 506 g

Question: And the “Weight” value (Body weight of MCAO rats; Group 1, D 30)?
Answer: 425 g and 450 g and 435 g and 490 g and 544 g and 470 g and 512 g

Question: What about the “Weight” value (Body weight of MCAO rats; Group 1, D 32) of the same compound?
Answer: 411 g and 441 g and 417 g and 470 g and 515 g and 454 g and 496 g

Question: What about the “Weight” value (Body weight of MCAO rats; Group 1, D 42) of the same compound?
Answer: 448 g and 491 g and 449 g and 499 g and 565 g and 479 g and 543 g

Question: What about the “Weight” value (Body weight of MCAO rats; Group 1, D 44) of the same compound?
Answer: 455 g and 501 g and 447 g and 511 g and 566 g and 480 g and 545 g and 454 g

Question: What about the “Weight” value (Body weight of MCAO rats; Group 1, D 46) of the same compound?
Answer: 448 g and 490 g and 440 g and 494 g and 570 g and 488 g and 552 g

Question: What about the “Weight” value (Body weight of MCAO rats; Group 1, D 56) of the same compound?
Answer: 476 g and 509 g and 452 g and 523 g and 612 g and 496 g and 576 g

Question: And the “Weight” value (Body weight of MCAO rats; Group 1, D 58)?
Answer: 480 g and 520 g and 460 g and 530 g and 625 g and 512 g and 585 g

Question: And the “Weight” value (Body weight of MCAO rats; Group 1, D 60)?
Answer: 475 g and 511 g and 456 g and 527 g and 615 g and 509 g and 587 g

Question: And the “Weight” value (Body weight of MCAO rats; Group 1, D −1)?
Answer: 305 g and 317 g and 311 g and 332 g and 340 g and 324 g and 330 g and 313 g

Question: And the “Effect on global body control (body swing test)” value ([2]; Example 2, low (0.63 mg/kg) or high (2 mg/kg) dose b.i.d. p.o., started 4 weeks post MCAO, dose-dependent, reversible)?
Answer: effective to improve global body control; also recorded: significant improvement

Question: And the Body swing performance ([2]; Example 17 dose escalation, groups diverged before treatment initiation)?
Answer: no conclusions can be drawn

Question: And the “Body Swing Test (% right Swing)” value ([2]; D 44 after MCAO)?
Answer: 39.56%

Question: And the “Body Swing Test (% right Swing)” value ([2]; D 46 after MCAO)?
Answer: 40.44%

Question: And the “Effect on forelimb function (forelimb placing test)” value ([3]; Example 2, low (0.63 mg/kg) or high (2 mg/kg) dose b.i.d. p.o., started 4 weeks post MCAO, dose-responsive, reversible)?
Answer: effective to improve forelimb function; also recorded: significant improvement

Question: And the “Forelimb Placing Total Score” value ([3]; Group 2, D 30 post-MCAO, Low 4-AP 0.63 mg/kg b.i.d. p.o., 1 h after 1st dose, group Mean, N=15)?
Answer: 4.20

Question: What about the “Forelimb Placing Total Score” value ([3]; Group 2, D 58 post-MCAO, High 4-AP 2.0 mg/kg b.i.d. p.o., 1 h after 1st dose, group Mean, N=15) of the same compound?
Answer: 1.90

Question: What about the “Forelimb Placing Total Score” value ([3]; Group 3, D 44 post-MCAO, High 4-AP 2.0 mg/kg b.i.d. p.o., 1 h after 1st dose, group Mean, N=15) of the same compound?
Answer: 2.67

Question: What about the “Forelimb Placing Total Score” value ([3]; Group 3, D 44 post-MCAO, High 4-AP 2.0 mg/kg b.i.d. p.o., 1 h after 1st dose, individual rats) of the same compound?
Answer: 4.00 (3×) and 1.00 and 2.50 and 3.00 (3×) and 4.50 (2×) and 0.00 (3×) and 5.00 and 1.50

Question: What about the “Forelimb Placing Total Score” value ([3]; Group 3, D 46 post-MCAO, High 4-AP 2.0 mg/kg b.i.d. p.o., 1 h after 5th dose, group Mean, N=15) of the same compound?
Answer: 1.33

Question: What about the “Forelimb Placing Total Score” value ([3]; Group 3, D 46 post-MCAO, High 4-AP 2.0 mg/kg b.i.d. p.o., 1 h after 5th dose, individual rats) of the same compound?
Answer: 3.00 (3×) and 0.00 (5×) and 2.00 and 1.50 (3×) and 1.00 (2×) and 2.50

Question: What about the “Forelimb Placing Total Score” value ([3]; Group 3, D 58 post-MCAO, Low 4-AP 0.63 mg/kg b.i.d. p.o., 1 h after 1st dose, group Mean, N=15) of the same compound?
Answer: 2.00

Question: What about the “Forelimb Placing Total Score” value ([3]; Group 3, D 58 post-MCAO, Low 4-AP 0.63 mg/kg b.i.d. p.o., 1 h after 1st dose, individual rats) of the same compound?
Answer: 3.00 (4×) and 0.50 and 2.00 and 3.50 and 1.50 (2×) and 2.50 (2×) and 4.00 and 0.00 (3×)

Question: What about the “Forelimb Placing Total Score” value ([3]; Group 3, D 60 post-MCAO, Low 4-AP 0.63 mg/kg b.i.d. p.o., 1 h after 5th dose, group Mean, N=15) of the same compound?
Answer: 1.80

Question: And the “Forelimb Placing Total Score” value ([3]; Group 3, D 60 post-MCAO, Low 4-AP 0.63 mg/kg b.i.d. p.o., 1 h after 5th dose, individual rats)?
Answer: 3.00 (4×) and 1.00 (2×) and 2.00 (2×) and 3.50 and 0.50 and 2.50 (2×) and 0.00 (3×)

Question: And the “Mean infarct volume (%)” value ([4]; Group 1 (H, L, V))?
Answer: 45.0 (±1.8) %

Question: And the “Mean infarct volume (%)” value ([4]; Group 2 (L, V, H))?
Answer: 41.4 (±2.3) %

Question: What about the “Mean infarct volume (%)” value ([4]; Group 3 (V, H, L)) of the same compound?
Answer: 39.0 (±3.3) %

Question: What about the “Mean (SE) Infarct Volume (%)” value ([4]; Example 17, 4-AP 0.5, 1 and 2 mg/kg b.i.d. Days 56-65, brains at day 70 after MCAO) of the same compound?
Answer: 40.0 (2.3) %
